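A five-concentration, 48-hour dose response in 96-well plates underlies each endpoint, interpolated linearly between surrounding concentrations. Here, GI50 denotes the concentration required for 50% inhibition of growth.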 Calls of active or inactive are those of the source. Cut-off read from the data, not from the text of the source: active = GI50 up to about 1.1 µM and inactive = higher.
Tests used:
Test in all cases: NCI-60 cell line screen, 48 h
MDA-N = test system: MDA-N
UO-31 = test system: UO-31
OVCAR-8 = test system: OVCAR-8
CCRF-CEM = test system: CCRF-CEM
HCT-116 = test system: HCT-116
LOX IMVI = test system: LOX IMVI
SNB-75 = test system: SNB-75
MDA-MB-231 = test system: MDA-MB-231
786-0 = test system: 786-0
KM12 = test system: KM12
A549 = test system: A549
SN12C = test system: SN12C
DU-145 = test system: DU-145
M14 = test system: M14
NCI-H226 = test system: NCI-H226
PC-3 = test system: PC-3
SK-MEL-28 = test system: SK-MEL-28
SNB-19 = test system: SNB-19
NCI-H460 = test system: NCI-H460

Measured: GI50

O=[N+]([O-])c1ccc2c(c1)=[N+]([O-])C1(CCCCC1)[N+]=2[O-]
inactive: MDA-N 18 µM | UO-31 19.6 µM | OVCAR-8 15.8 µM | CCRF-CEM 3.36 µM | HCT-116 17.1 µM | LOX IMVI 19.9 µM | SNB-75 17.3 µM | MDA-MB-231 18.2 µM | 786-0 11.5 µM | KM12 20.5 µM | A549 19.7 µM | SN12C 17.5 µM | DU-145 18.9 µM | M14 15.6 µM | NCI-H226 21.1 µM | PC-3 17.5 µM | SK-MEL-28 19.3 µM | SNB-19 36.4 µM | NCI-H460 18.8 µM

Cc1cc(Br)cc(C)c1NC(=O)C(=O)C1C(=O)C(CC2C(=O)c3ccccc3C2=O)C(=O)CC1(C)C (stereo not given)
inactive: MDA-N > 100 µM | UO-31 16.8 µM | OVCAR-8 > 100 µM | CCRF-CEM 41.7 µM | HCT-116 83.2 µM | LOX IMVI > 100 µM | SNB-75 > 100 µM | MDA-MB-231 55 µM | 786-0 > 100 µM | KM12 > 100 µM | A549 79.6 µM | SN12C > 100 µM | DU-145 > 100 µM | M14 > 100 µM | NCI-H226 67.5 µM | PC-3 60.7 µM | SK-MEL-28 > 100 µM | SNB-19 > 100 µM | NCI-H460 > 100 µM

Oc1ccc(Cl)cc1-c1nc(S)nc(-c2ccccc2)c1Cl
inactive: MDA-N > 100 µM | UO-31 > 88.5 µM | OVCAR-8 > 100 µM | CCRF-CEM > 100 µM | HCT-116 > 96.4 µM | LOX IMVI > 56.9 µM | SNB-75 18.9 µM | MDA-MB-231 > 56.4 µM | 786-0 34.7 µM | KM12 > 100 µM | A549 > 100 µM | SN12C > 100 µM | DU-145 > 70.6 µM | M14 > 100 µM | NCI-H226 > 100 µM | PC-3 > 100 µM | SK-MEL-28 > 100 µM | SNB-19 69.2 µM | NCI-H460 > 100 µM

CC(NNC(=O)c1ccncc1)c1ccc(Cl)c(Cl)c1 (stereo not given)
inactive: MDA-N 95.3 µM | UO-31 54.6 µM | OVCAR-8 > 100 µM | CCRF-CEM 43.4 µM | HCT-116 > 100 µM | LOX IMVI > 100 µM | SNB-75 > 100 µM | MDA-MB-231 > 100 µM | 786-0 > 100 µM | KM12 > 100 µM | A549 > 100 µM | SN12C > 100 µM | DU-145 > 100 µM | M14 67.9 µM | NCI-H226 > 100 µM | PC-3 71.3 µM | SK-MEL-28 > 100 µM | SNB-19 > 100 µM | NCI-H460 > 100 µM

C[C@]12CC[C@H]3[C@@H](CCC4=CC(=O)CC[C@@H]43)[C@@H]1CC[C@]2(O)C(N)=O
inactive: MDA-N > 100 µM | UO-31 > 100 µM | OVCAR-8 > 100 µM | CCRF-CEM > 100 µM | HCT-116 > 100 µM | LOX IMVI > 100 µM | SNB-75 > 100 µM | MDA-MB-231 > 100 µM | 786-0 > 100 µM | KM12 > 100 µM | A549 > 100 µM | SN12C > 100 µM | DU-145 > 100 µM | M14 > 100 µM | NCI-H226 > 100 µM | PC-3 > 100 µM | SK-MEL-28 > 100 µM | SNB-19 > 100 µM | NCI-H460 > 100 µM

CC1=NN(C(=O)CC(=O)Nc2ccc(Cl)cc2)C(=O)C1/N=N\c1ccc(S(=O)(=O)c2ccc(/N=N/C3C(=O)N(C(=O)CC(=O)Nc4ccc(Cl)cc4)N=C3C)cc2)cc1 (stereo not given)
inactive: MDA-N > 100 µM | UO-31 > 100 µM | OVCAR-8 > 100 µM | CCRF-CEM > 100 µM | HCT-116 > 100 µM | LOX IMVI > 100 µM | SNB-75 39.5 µM | MDA-MB-231 51.9 µM | 786-0 > 100 µM | KM12 > 100 µM | A549 > 100 µM | SN12C > 100 µM | DU-145 > 100 µM | M14 65.2 µM | NCI-H226 > 100 µM | PC-3 > 100 µM | SK-MEL-28 > 100 µM | SNB-19 61.5 µM | NCI-H460 > 100 µM

O=[N+]([O-])c1ccc2c(c1)/C(=N/N=C1c3ccccc3Cc3ccccc31)c1cc([N+](=O)[O-])cc([N+](=O)[O-])c1-2
inactive: MDA-N 3.36 µM | UO-31 2.05 µM | OVCAR-8 1.67 µM | CCRF-CEM 1.75 µM | HCT-116 1.57 µM | LOX IMVI 2.24 µM | SNB-75 2.81 µM | MDA-MB-231 2.62 µM | 786-0 1.72 µM | KM12 2.47 µM | A549 9.4 µM | SN12C 1.67 µM | DU-145 5.82 µM | M14 2.49 µM | NCI-H226 13.4 µM | PC-3 2.76 µM | SK-MEL-28 3.45 µM | SNB-19 7.33 µM | NCI-H460 3.14 µM

O=C1CC(c2ccccc2Cl)C2(C(=O)NC(=S)NC2=O)C(c2ccccc2Cl)C1 (stereo not given)
inactive: MDA-N 26.8 µM | UO-31 46.5 µM | OVCAR-8 23 µM | CCRF-CEM 35.6 µM | HCT-116 20 µM | LOX IMVI 16.9 µM | SNB-75 69.8 µM | MDA-MB-231 27.2 µM | 786-0 21.5 µM | KM12 12.9 µM | A549 20.8 µM | SN12C 25.9 µM | DU-145 34 µM | M14 17.1 µM | NCI-H226 28.6 µM | PC-3 23.6 µM | SK-MEL-28 49 µM | SNB-19 13.2 µM | NCI-H460 20 µM

Cc1csc2nc(-c3cccc([N+](=O)[O-])c3)c(/C=N/N=C(N)N)n12
inactive: MDA-N 1.67 µM | UO-31 1.39 µM | OVCAR-8 1.74 µM | CCRF-CEM 1.92 µM | HCT-116 1.7 µM | LOX IMVI 1.81 µM | SNB-75 1.75 µM | MDA-MB-231 1.55 µM | 786-0 1.57 µM | KM12 1.68 µM | A549 1.72 µM | SN12C 1.69 µM | DU-145 2.19 µM | M14 1.71 µM | NCI-H226 1.64 µM | PC-3 1.63 µM | SK-MEL-28 1.71 µM | SNB-19 1.9 µM | NCI-H460 3.2 µM

O=C1c2ccccc2-c2nnc3c(c21)Cc1ccccc1C3
inactive: MDA-N > 10 µM | UO-31 > 10 µM | OVCAR-8 > 10 µM | CCRF-CEM > 10 µM | HCT-116 > 10 µM | LOX IMVI > 10 µM | SNB-75 2.43 µM | MDA-MB-231 > 10 µM | 786-0 > 10 µM | KM12 > 10 µM | A549 > 10 µM | SN12C > 10 µM | DU-145 > 10 µM | M14 > 10 µM | NCI-H226 > 10 µM | PC-3 9.53 µM | SK-MEL-28 > 10 µM | SNB-19 > 10 µM | NCI-H460 > 10 µM

From ChEMBL document CHEMBL1201862, “PubChem BioAssay data set” (2004)
